Data taken from US11813268B2, “Mitofusin activators and uses thereof” (Albert Einstein College of Medicine, priority 2017, dated 2023).
Peptide text beside a SMILES is read from it.

system: WT MEFs; assay: cells; conditions: read-out: EC50 for inducing fusion (Mito AR); WT MEFs, mitochondrial aspect ratio
Description: Next, it was visually examined if MASM7 could induce mitochondrial fusion in MEFs, using mitochondrial aspect ratio (mitochondrial length/width, reflecting fusion) as a readout. […] (FIG. 5).

Row | Structure (SMILES) | EC50 [nM]
1 | CC[C@H](C)[C@H](NC(=O)CNC(=O)[C@H](CCCNC(=N)N)NC(=O)[C@@H](NC(=O)[C@H](CCC(=O)O)NC(=O)[C@H](C)NC(=O)[C@@H](NC(=O)[C@@H](N)CCC(N)=O)[C@@H](C)CC)C(C)C)C(=O)N[C@@H](CCSC)C(=O)N[C@@H](CC(=O)O)C(=O)N[C@@H](CO)C(=O)N[C@@H](CC(C)C)C(=O)N[C@@H](Cc1c[nH]cn1)C(=O)N[C@@H](CCSC)C(=O)N[C@@H](C)C(=O)N[C@@H](C)C(=O)N[C@@H](CCCNC(=N)N)C(=O)NCC(=O)NCC(=O)N[C@@H](Cc1ccc(O)cc1)C(=O)NCC(=O)N[C@@H](CCCNC(=N)N)C(=O)N[C@@H](CCCCN)C(=O)N[C@@H](CCCCN)C(=O)N[C@@H](CCCNC(=N)N)C(=O)N[C@@H](CCCNC(=N)N)C(=O)N[C@@H](CCC(N)=O)C(=O)N[C@@H](CCCNC(=N)N)C(=O)N[C@@H](CCCNC(=N)N)C(=O)N[C@@H](CCCNC(=N)N)C(=O)O [367-384 Gly, reference compound] (H-QIAEVRGIMDSLHMAARGGYGRKKRRQRRR-OH) | 340

target: T1, human Mfn2 (Homo sapiens, UniProt O95140); assay: FRET-based Mfn2 biosensor (wild type) in HEK 293T cells; type: cell-based; parameters: concentration or dose not given beside the values; conditions: WT FRET-based Mfn2 biosensor, 2 h
T1 construct: expressed in transfected cells; host or cells: HEK 293T
T1 sequence (O95140 1-757): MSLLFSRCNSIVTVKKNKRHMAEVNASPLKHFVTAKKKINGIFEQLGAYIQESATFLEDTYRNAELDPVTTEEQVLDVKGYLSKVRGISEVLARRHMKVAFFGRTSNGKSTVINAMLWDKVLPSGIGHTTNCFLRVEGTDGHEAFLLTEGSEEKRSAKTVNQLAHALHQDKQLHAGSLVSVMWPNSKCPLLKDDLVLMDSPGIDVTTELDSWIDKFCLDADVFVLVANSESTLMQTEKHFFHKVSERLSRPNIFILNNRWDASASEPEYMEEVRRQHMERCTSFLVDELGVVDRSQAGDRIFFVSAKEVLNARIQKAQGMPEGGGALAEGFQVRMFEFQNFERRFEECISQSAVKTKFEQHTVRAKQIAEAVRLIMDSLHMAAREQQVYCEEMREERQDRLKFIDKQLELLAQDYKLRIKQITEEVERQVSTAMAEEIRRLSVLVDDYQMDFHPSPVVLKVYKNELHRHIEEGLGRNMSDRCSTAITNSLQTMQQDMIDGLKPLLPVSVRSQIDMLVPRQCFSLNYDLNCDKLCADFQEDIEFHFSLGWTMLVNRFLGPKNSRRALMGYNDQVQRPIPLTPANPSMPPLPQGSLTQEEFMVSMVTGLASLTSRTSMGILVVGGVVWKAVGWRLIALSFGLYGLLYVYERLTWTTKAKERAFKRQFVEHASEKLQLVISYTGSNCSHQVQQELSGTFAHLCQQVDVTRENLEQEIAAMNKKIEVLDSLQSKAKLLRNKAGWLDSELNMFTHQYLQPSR
Procedure: To generate FRET-based Mfn2 biosensor construct, pcDNA3.1-Flag-Mfn2 (5′Flag epitope cassette onto human Mfn2) was used as backbone, and mCerulean (cyan fluorescent protein; CFP) was fused onto 5′ of Mfn2 and mVenus (yellow fluorescent protein; YFP) onto 3′ of ORF of Mfn2 (20-22). […] Then, the mVenus fragment was fused into pcDNA3.1-Cerulean1-Mfn2 to generate pcDNA3.1-Cerulean1-Mfn2-mVenus with mega-mutagenesis PCR using mVenus fragment as mega primer. PCR conditions: lx 95° C. 10 min; 15×(95° C. 30 sec, […], 68° C. 18 min); 1×72° C. 10 min. The construct was confirmed by sequencing.
Cells were transfected with the total amount of 2.5 μg of DNA per well for the indicated Mfn2 FRET constructs using Lipofectamine® 3000 Reagent (Invitrogen) according to the manufacturer's protocol. The following day, transfected cells were transferred to a pre-coated with poly L-lysine 96-well black plate (2×10^4 cells/well). […] GTPγS (Sigma Aldrich) was used to inhibit GTPase activity of Mfn2. Subsequently, cells were treated for 2 h with MASMs or vehicle (0.1% DMSO). Dilutions of MASMs were performed using a TECAN D300e Digital Dispenser from 10 mM stock solutions. […] Acceptor/Donor ratio referred to the text and figures correspond to the ratio of fluorescence intensities (relative fluorescence units: RFU) detected by the acceptor filter/donor filter. Non-transfected cells were used to subtract background fluorescence from each of the aforementioned filters that were used in the study.
To evaluate the capacity of the selected hits to propel the pro-tethering conformation of Mfn2, a screening assay was developed based on a Forster resonance energy transfer (FRET) biosensor of Mfn2. […] Loss of intra-molecular HR1-HR2 interactions, occurring in the pro-tethering conformation of Mfn2, increase the distance between mCerulean and mVenus and lead to a decrease in the resonance energy that is transferred.

Row | Structure (SMILES) | % of FRET reduction [%]
2 | Cc1cc(NC(=O)C(C)SCC(=O)Nc2ccc(NC(C)c3ccccc3)cc2)no1 (centres unmarked) [MASM1] | −5.3
3 | Cc1ccc(C(=O)C(C)Sc2nnc3c(=O)n(-c4ccc(Br)cc4)ccn23)cc1C (centres unmarked) [MASM2] | −0.5
4 | Cc1ccc(CSCCNC(=O)C2CCN(c3ccc4nnc(C(F)(F)F)n4n3)CC2)cc1 [MASM3] | −14.1
5 | CC(/N=N/C(=N)SC1CC(=O)N(c2cccc(C(=O)O)c2)C1=O)c1ccccc1 (centres unmarked) [MASM4] | −8.6
6 | CC(c1cccc([N+](=O)[O-])c1)N(C)CC(=O)NCCSCc1ccccc1C#N (centres unmarked) [MASM5] | 0
7 | CCC(SC1Cc2cc(OC)c(OC)cc2-c2nc(CCn3nc(C)cc3C)nn21)C(=O)Nc1ccc(F)cc1 (centres unmarked) [MASM6] | −0.7
8 | CC(Sc1nc(C2CC2)nc2c1c(=O)[nH]c(=O)n2C1CC1)C(=O)NCC1CCCCC1 (centres unmarked) [MASM8] | 1.2
9 | COc1ccc2c(c1)C1(SCCN1C(=O)c1ccccc1C)C(=O)N2Cc1cccc(C(F)(F)F)c1 (centres unmarked) [MASM9] | 1.1
10 | O=C(CSCc1ccc(F)cc1)N1CCc2c([nH]c3ccccc23)C1c1ccc(Cl)cc1 (centres unmarked) [MASM11] | 1.97
11 | c1ccc(CSCCc2nc(C3CCOC3)no2)cc1 (centres unmarked) [MASM12] | −4.5
12 | CC(=O)NC12CC3CC(C1)CC(C(=O)NCCSCc1ccc(C)cc1)(C3)C2 [MASM13] | −4.6
13 | CCC(C)NC(=O)c1ccccc1NC(=O)C(C)Sc1ccc(C)cc1 (centres unmarked) [MASM14] | −10
14 | S=C(NCCSCc1ccco1)NC1CC2CCC1C2 (centres unmarked) [MASM15] | −3.6
15 | O=C(NCCSCc1ccccc1)C1CCCCO1 (centres unmarked) [MASM16] | −11.2
16 | Cc1ccc(NC(=O)CC2SC(CC(c3ccc(C(C)C)cc3)c3c(O)[nH]c(=O)[nH]c3=O)=NC2=O)c(C)c1 (centres unmarked) [MASM17] | −5.9
17 | COc1ccc(SC(C)C(=O)Nc2cc[nH]n2)cc1 (centres unmarked) [MASM18] | −5.8
18 | CC(Sc1nnc(C2CC2)n1-c1ccccc1)C(=O)NC(N)=O (centres unmarked) [MASM19] | 2.7
19 | CC(Sc1nnc(-c2ccccc2)n1-c1ccccc1)C(=O)Nc1sc2c(c1C(N)=O)CCC2 (centres unmarked) [MASM20] | 10.1
20 | NC(=O)c1c(NC(=O)CSc2nnc(C3CC3)n2-c2ccccc2)sc2c1CCC2 [MASM21] | 27.1
21 | CC(Sc1nnc(-c2ccco2)n1-c1ccccc1)C(=O)Nc1sc2c(c1C(N)=O)CCC2 (centres unmarked) [MASM22] | 31.7
22 | Cc1ccc(-c2nnc(SC(C)C(=O)Nc3sc4c(c3C(N)=O)CCC4)n2-c2ccccc2)o1 (centres unmarked) [MASM23] | 13.9
23 | CC1CCc2c(sc(NC(=O)CSc3nnc(C4CC4)n3-c3ccccc3)c2C(N)=O)C1 (centres unmarked) [MASM24] | 18.9

Row | Structure (SMILES) | % of FRET reduction [%]
24 | CC(Sc1nnc(C2CC2)n1Cc1ccccc1)C(=O)Nc1sc2c(c1C(N)=O)CCC2 (centres unmarked) [MASM25] | 32.2
25 | Cc1nnc(SCC(=O)Nc2sc3c(c2C(N)=O)CCC3)n1-c1ccccc1 [MASM26] | 37.0
26 | Cc1ccccc1-n1c(SCC(=O)Nc2sc3c(c2C(N)=O)CCC3)nnc1-c1ccncc1 [MASM27] | 30.0
27 | CC(Sc1nnc(C2CC2)n1-c1ccccc1)C(=O)Nc1sc2c(c1C#N)CCCCC2 (centres unmarked) [MASM28] | 8.0
28 | CC(Sc1nncn1-c1ccccc1)C(=O)Nc1sc2c(c1C(N)=O)CCC2 (centres unmarked) [MASM29] | 16.5
29 | C=CCn1c(SCC(=O)Nc2sc3c(c2C(N)=O)CCC3)nnc1C1CCCCC1 [MASM30] | 17.7
30 | CC(Sc1nnc(Cc2cccs2)n1C1CC1)C(=O)Nc1sc2c(c1C(N)=O)CCC2 (centres unmarked) [MASM31] | 30.7
31 | NC(=O)c1c(NC(=O)CSc2nc(C3CC3)n(-c3ccccc3)n2)sc2c1CCC2 [MASM32] | 37.0
32 | CC(c1nnc(SCC(=O)Nc2sc3c(c2C(N)=O)CCC3)n1-c1ccc(F)cc1)N(C)C (centres unmarked) [MASM33] | 31.9
33 | CC(Sc1nnc2c(Cl)cc(C(F)(F)F)cn12)C(=O)Nc1sc2c(c1C(N)=O)CCC2 (centres unmarked) [MASM34] | 19.4
34 | CC(Sc1nnc(Cc2ccccc2)n1C)C(=O)Nc1sc2c(c1C(N)=O)CCC2 (centres unmarked) [MASM35] | 25.9
35 | CC(Sc1nnc(-c2cccs2)n1-c1ccccc1)C(=O)Nc1sc2c(c1C(N)=O)CCC2 (centres unmarked) [MASM36] | 11.1
36 | CC(Sc1nccn1Cc1ccccc1)C(=O)Nc1sc2c(c1C(N)=O)CCC2 (centres unmarked) [MASM37] | 21.0
37 | CCn1c(Cc2ccccc2)nnc1SC(C)C(=O)Nc1sc2c(c1C(N)=O)CCC2 (centres unmarked) [MASM38] | 9.9
38 | CC(Sc1nnc(-c2ccco2)n1C1CCCCC1)C(=O)Nc1sc2c(c1C(N)=O)CCC2 (centres unmarked) [MASM39] | 9.9
39 | CC(Sc1nnnn1-c1ccc(O)cc1)C(=O)Nc1sc2c(c1C(N)=O)CCC2 (centres unmarked) [MASM40] | 22.6
40 | CC(Sc1nccn1-c1cccc(F)c1)C(=O)Nc1sc2c(c1C(N)=O)CCC2 (centres unmarked) [MASM41] | 10.2
41 | CC(C)Cn1c(SC(C)C(=O)Nc2sc3c(c2C(N)=O)CCC3)nnc1N1CCOCC1 (centres unmarked) [MASM42] | −1.4
42 | NC(=O)c1c(NC(=O)CSc2nnc(C3CC3)n2Cc2ccccc2)sc2c1CCC2 [MASM43] | 14.8
43 | Cn1c(SCC(=O)Nc2sc3c(c2C(N)=O)CCCC3)nnc1C1CC1 [MASM44] | 23.3
44 | CC(Sc1nnnn1C1CC1)C(=O)Nc1sc2c(c1C(N)=O)CCC2 (centres unmarked) [MASM45] | 26.4
